In publication PMC12144419, “Early preclinical development of Mycobacteriumtuberculosis amino acid biosynthesis pathway inhibitor DRILS-1398 as a potential anti-TB drug” (iScience, 2025):
Values joined by “and” are separate entries in the source; they are usually repeats but may differ in a detail not shown here. Equal values may be shown once. “Also recorded” adds a separate entry of the source. Read-outs that look alike come from different tables or passages of the source.

Columns and labels:
M.tb-CM = test system: M.tb-CM; design: method as in doi:10.1039/C1MD00148E; settings: read-out: IC50, inhibition of M.tb-CM; cited from earlier work
M.tb H37Rv [1] = test: Histopathology (H&E, ZN stain) of lungs of infected mice; settings: for Granuloma in the lung: DRILS-1398 and DRILS-1398(F) 30 mg/kg, isoniazid 5 mg/kg; for Acid-fast bacilli load in lung, ZN staining: vs infected mice without drug
[2] = test system: intracellular MDR-M.tb H37Rv (ATCC 35825) in activated THP-1 macrophages; test: Intracellular efficacy THP-1 macrophage assay, MDR-M.tb ATCC 35825; assay type: cell-based, Mycobacterium tuberculosis; settings: for cfu reduction vs day 7 control, combination study: Fig 4E, DRILS-1398 15 μM, rifampicin 19.45 μM, alone or combined
[3] = test system: intracellular M.tb H37Rv (ATCC 27294) in activated THP-1 macrophages; test: Intracellular efficacy THP-1 macrophage assay, M.tb H37Rv ATCC 27294; settings: for cfu reduction vs day 3 control, combination study / cfu reduction vs day 7 control, combination study: Fig 4D, DRILS-1398 15 μM, rifampicin 19.45 μM, alone or combined
Method: The THP-1 cells were activated with PMA (phorbol 12-myristate-13-acetate) for differentiation into macrophages. After 72 hr of activation, the THP-1 macrophages were infected with M.tb H37Rv strain (ATCC-27294 and ATCC-35825) at a multiplicity of infection (MOI) of 1:10.[34]^,[35] The macrophage infection was allowed for 2 hrs at 37°C with 5% CO2. The media containing M.tb was discarded, and macrophage monolayers were washed twice with phosphate-buffered saline to remove the extracellular bacteria and replenished with fresh, complete RPMI. The M.tb-infected macrophages were exposed to compounds by transferring 200 μL of fresh media containing the respective concentrations of the compounds. Duplicate wells were lysed (0.05% SDS) at specific time points and enumerated to estimate the numbers of intracellular M.tb 2 hr post-infection. The 0.1 mL of lysate was serially diluted and plated onto Middle brook 7H11 agar plates for enumeration (read after 3 to 4 weeks) of live M.tb after compound treatment. After 3 and 7 day exposure to the compounds, the cells were treated the same way, and the live M.tb was enumerated. The efficacy of the test compound was assessed by comparing the M.tb counts from the respective days to day 0 and day 7.

CYP 2D6 = CYP 2D6 (Homo sapiens, UniProt P10635); test: biochemical
Chain of CYP 2D6 (P10635 whole entry): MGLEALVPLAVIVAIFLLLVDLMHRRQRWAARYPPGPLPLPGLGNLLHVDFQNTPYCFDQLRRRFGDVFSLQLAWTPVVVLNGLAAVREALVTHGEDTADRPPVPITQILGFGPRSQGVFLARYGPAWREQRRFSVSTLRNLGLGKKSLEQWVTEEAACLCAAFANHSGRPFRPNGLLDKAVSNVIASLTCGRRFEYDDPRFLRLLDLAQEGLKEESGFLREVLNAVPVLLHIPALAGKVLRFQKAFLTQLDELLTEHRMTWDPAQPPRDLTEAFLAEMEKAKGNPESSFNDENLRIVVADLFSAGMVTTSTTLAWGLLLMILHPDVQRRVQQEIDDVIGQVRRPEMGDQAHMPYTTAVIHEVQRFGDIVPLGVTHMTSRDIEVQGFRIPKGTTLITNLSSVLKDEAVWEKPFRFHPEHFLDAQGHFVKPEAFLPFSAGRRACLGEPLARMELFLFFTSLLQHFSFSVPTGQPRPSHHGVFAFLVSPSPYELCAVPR
Method: (§1) This study performed CYP inhibition assay using Vivid CYP P450 (1A2, 2C9, 2C19, 2D6, and 3A4) blue screening kits.[56] […] The fluorescent reading was taken using a microplate reader at excitation/emission wavelengths of 415/460 nm, respectively. The % of CYP inhibition of test/positive control at each tested concentration was calculated, and the IC50 value against each CYP isoform was plotted using Graph pad prism software.

MDR-M.tb ATCC 35825 = test: Broth dilution MIC by turbidometry; assay type: cell-based; settings: Mycobacterium tuberculosis, ATCC35825
[4] = microsomes; for Mouse microsomal stability: 3 µM
[5] = test system: Salmonella typhimurium TA98, TA100 and TA1537; test: Bacterial reverse mutation test (Ames); settings: 3000.0, 949.5, 300.0, 94.9 and 30.0 μg/plate, with and without rat liver S9
M.tb H37Rv cells = test: In vitro amino acid supplementation (rescue) growth experiment; assay type: cell-based, Mycobacterium tuberculosis; settings: amino acid 100 μg/mL
CYP 2C19 = CYP 2C19 (Homo sapiens, UniProt P33261); test: biochemical
Chain of CYP 2C19 (P33261 whole entry): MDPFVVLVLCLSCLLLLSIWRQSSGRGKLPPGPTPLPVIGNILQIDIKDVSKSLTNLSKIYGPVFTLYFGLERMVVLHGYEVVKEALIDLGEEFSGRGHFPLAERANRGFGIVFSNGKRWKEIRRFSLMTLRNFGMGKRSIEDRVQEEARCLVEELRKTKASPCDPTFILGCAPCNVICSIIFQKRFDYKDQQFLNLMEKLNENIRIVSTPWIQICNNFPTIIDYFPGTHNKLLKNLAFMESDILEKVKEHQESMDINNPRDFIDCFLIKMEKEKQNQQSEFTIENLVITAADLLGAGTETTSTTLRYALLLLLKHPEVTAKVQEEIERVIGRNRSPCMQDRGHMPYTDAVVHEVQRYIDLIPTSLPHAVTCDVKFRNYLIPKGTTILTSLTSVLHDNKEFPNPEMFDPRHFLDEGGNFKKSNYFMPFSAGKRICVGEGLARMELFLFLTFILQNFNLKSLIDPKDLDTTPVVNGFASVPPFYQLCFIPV
Method: as §1

[6] = Single-dose IV pharmacokinetics in male BALB/c mice; assay type: in vivo; settings: mouse, 10 mg/kg
Method: The intravenous (IV) (10 mg/kg of DRILS-1398) dosing study on BALB/c male mice (n=3 per time point, not more than 2 bleeds per animal, total animals dosed n=12) was carried out on the following time points through saphenous veins; IV: 15 mins, 30 mins, 1, 2, 4, 6, 8 and 24 hr. Collected blood specimens were centrifuged at 6000rpm, 4°C for 10 minutes, and plasma was separated and stored at -80°C until analysis. […] Concentrations of analyte DRILS-1398 in mice plasma samples were determined using the Shimadzu LCMS-8045 LC-MS/MS system. The protocol was approved by the Institutional Animal Ethics Committee of the Preclinical Research Department, Anthem Biosciences Pvt. Ltd., Bangalore 560099, India (protocol number for 10 mg/kg IV PK study: ABD-7967B (ABD/IAEC/PR/89-17-20).

M.tb. ATCC-27294 strain = test: MIC against M.tb ATCC-27294; assay type: cell-based; settings: Mycobacterium tuberculosis, ATCC27294
CYP 3A4 = CYP 3A4 (Homo sapiens, UniProt P08684); test: biochemical
Chain of CYP 3A4 (P08684 whole entry): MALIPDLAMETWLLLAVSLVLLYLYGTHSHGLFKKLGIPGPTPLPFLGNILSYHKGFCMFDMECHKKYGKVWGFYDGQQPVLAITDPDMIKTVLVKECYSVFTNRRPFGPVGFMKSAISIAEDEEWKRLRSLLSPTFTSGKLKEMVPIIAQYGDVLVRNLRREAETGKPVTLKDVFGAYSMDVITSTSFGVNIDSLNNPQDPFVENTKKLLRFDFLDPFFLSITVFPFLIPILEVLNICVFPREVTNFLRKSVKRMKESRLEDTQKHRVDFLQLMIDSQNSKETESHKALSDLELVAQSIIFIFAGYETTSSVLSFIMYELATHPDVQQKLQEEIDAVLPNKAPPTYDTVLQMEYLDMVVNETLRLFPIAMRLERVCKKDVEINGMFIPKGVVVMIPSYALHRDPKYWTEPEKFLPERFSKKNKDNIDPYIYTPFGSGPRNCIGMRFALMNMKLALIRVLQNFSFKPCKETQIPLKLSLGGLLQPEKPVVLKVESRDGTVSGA
Method: as §1

[7] = Repeated dose 7-day toxicity study; assay type: in vivo, BALB/c mice
Method: As per the guideline,[58]^,[59] 40 males and 40 females were assigned into four groups of ten animals/sex per group viz., Vehicle control (G1), Low dose (G2), Mid Dose (G3) and High dose (G4). The test item formulations were prepared freshly in Ultra-pure water type 1 as a vehicle. The vehicle alone was administered to the vehicle control (G1) animals. Test item formulations were administered daily once at dose levels of 125 (G2), 250 (G3) and 500 (G4) mg/kg b.w./day. All the animals were administered a dose volume of 10 mL/kg b.w. once daily for 7 consecutive days. All the animals were observed once daily for clinical signs, twice daily for mortality/morbidity, and on day 7 for detailed clinical examination. Body weights and feed consumption were recorded at weekly intervals. At the end of the experimental period (day 8), blood and harvested plasma specimens were analyzed for haematology and clinical chemistry parameters, respectively. Subsequently, the animals were euthanized and subjected to gross pathological examination. The specified organs were collected and preserved in 10% NBF for histopathological evaluation. The protocol was approved by the Institutional Animal Ethics Committee of the Preclinical Research Department, Anthem Biosciences Pvt. Ltd., Bangalore 560099, India. Study no: N23041 (ABD/IAEC/PR/296-23-24).

[8] = Single-dose oral pharmacokinetics in male BALB/c mice; settings: mouse, in vivo
Method: Male BALB/c mice aged 8-9 weeks were used for experimentation after a minimum of 3 days of acclimatization.[38]^,[39]^,[40] Fasted animals were administered with DRILS-1398 or DRILS-1398 (F) in a recommended vehicle (1%(v/v) Tween 80 + 99% (v/v) of 0.5% (w/v) Carboxymethylcellulose sodium salt in ultrapure water) by oral route with a dose of 50 mg/kg body weight of DRILS-1398 or 10 mg/kg and 30 mg/kg for DRILS-1398(F) at a dose volume of 10 mL/kg b.w. Under mild isoflurane anesthesia, a blood specimen was collected into pre-labeled tubes containing anticoagulant (K2EDTA - 2 mg/mL blood) during the next 24 hours of post-dose (Table-PK study design chart). The collected blood specimens were centrifuged at 6000 rpm, 4°C for 10 min, and plasma was separated and stored at -80°C until analysis. […] Concentrations of analyte DRILS-1398 in mice plasma samples were determined using the Shimadzu LCMS-8045 LC-MS/MS system. The protocols were approved by the Institutional Animal Ethics Committee of the Preclinical Research Department, Anthem Biosciences Pvt. Ltd., Bangalore 560099, India (Study no for 50mg/kg PK study: N20084, (ABD/IASE/PR/185/19-22) and the study no for PK studies for 10mg/kg and 30mg/kg of DRILS-1398(F): ABD-8056 and ABD-7967A (ABD/IAEC/PR/89-17-20) respectively.

[9] = molecular target: M.tb chorismate mutase (M.tb-CM) (Mycobacterium tuberculosis, UniProt P9WIB9); test: CM assay (in vitro substrate competition enzymatic assay, chorismate to prephenate, OD 274 nm); assay type: biochemical
Chain of M.tb chorismate mutase (M.tb-CM) (P9WIB9 34-199): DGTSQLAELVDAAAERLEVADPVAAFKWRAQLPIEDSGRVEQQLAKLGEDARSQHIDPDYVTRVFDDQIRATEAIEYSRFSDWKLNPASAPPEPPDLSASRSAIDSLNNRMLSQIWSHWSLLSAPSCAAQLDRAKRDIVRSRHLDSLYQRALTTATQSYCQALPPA
Method: The activity of the CM enzyme was based on direct observation of the conversion of chorismate to prephenate at OD 274 nm.[32] The reaction volume of the assay was maintained at 100 μl. 1mM of the substrate, chorismic acid (Sigma) was pre-incubated at 37°C for 5 min in the buffer (containing 50mM Tris-HCl (pH 7.5), 0.5mM EDTA, 0.1 mg/mL bovine serum albumin, and 10 mM β-Mercaptoethanol). The reaction was started by adding 180 pmol of CM enzyme to the prewarmed chorismic acid solution. Inhibitory screening of the compounds against CM activity was measured at 100 nM to 50 μM concentration of the effectors. The reaction was allowed to proceed at 37°C and was terminated after 5 min with 100 μl of 1 N HCl. Disappearance of substrate was measured at 274 nm. A blank with no enzyme for every reaction was kept as a control to account for the non-enzymatic conversion of chorismate to prephenate.

in vitro = in vitro ADME; settings: mouse, plasma
Method: DRILS-1398 (5μM) was added to both sides of the membrane in an equilibrium dialysis system. Species-specific plasma (50% or 100%) was added to one side, and the system was allowed to reach equilibrium at 37 °C. LC-MS/MS measurements of compound concentration were performed on both sides of the membrane and the fraction of unbound compound was presented.[52]

CYP 1A2 = CYP 1A2 (Homo sapiens, UniProt P05177); test: Vivid CYP inhibition, fluorescent substrate method
Chain of CYP 1A2 (P05177 whole entry): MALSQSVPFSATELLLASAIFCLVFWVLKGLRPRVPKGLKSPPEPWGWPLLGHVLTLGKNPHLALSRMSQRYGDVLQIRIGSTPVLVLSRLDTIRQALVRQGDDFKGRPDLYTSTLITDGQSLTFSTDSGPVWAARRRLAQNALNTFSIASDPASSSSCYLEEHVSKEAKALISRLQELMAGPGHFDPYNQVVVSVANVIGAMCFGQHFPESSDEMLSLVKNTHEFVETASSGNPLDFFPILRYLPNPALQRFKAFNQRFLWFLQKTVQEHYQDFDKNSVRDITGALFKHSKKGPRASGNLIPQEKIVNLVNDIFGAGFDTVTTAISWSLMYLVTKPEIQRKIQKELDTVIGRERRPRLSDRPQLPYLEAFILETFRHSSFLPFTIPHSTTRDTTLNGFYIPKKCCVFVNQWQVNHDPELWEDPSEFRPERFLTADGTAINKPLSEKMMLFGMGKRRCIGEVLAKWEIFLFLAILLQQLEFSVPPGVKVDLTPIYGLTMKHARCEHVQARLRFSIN
Method: as §1

CYP 2C9 = CYP 2C9 (Homo sapiens, UniProt P11712); test: biochemical
Chain of CYP 2C9 (P11712 whole entry): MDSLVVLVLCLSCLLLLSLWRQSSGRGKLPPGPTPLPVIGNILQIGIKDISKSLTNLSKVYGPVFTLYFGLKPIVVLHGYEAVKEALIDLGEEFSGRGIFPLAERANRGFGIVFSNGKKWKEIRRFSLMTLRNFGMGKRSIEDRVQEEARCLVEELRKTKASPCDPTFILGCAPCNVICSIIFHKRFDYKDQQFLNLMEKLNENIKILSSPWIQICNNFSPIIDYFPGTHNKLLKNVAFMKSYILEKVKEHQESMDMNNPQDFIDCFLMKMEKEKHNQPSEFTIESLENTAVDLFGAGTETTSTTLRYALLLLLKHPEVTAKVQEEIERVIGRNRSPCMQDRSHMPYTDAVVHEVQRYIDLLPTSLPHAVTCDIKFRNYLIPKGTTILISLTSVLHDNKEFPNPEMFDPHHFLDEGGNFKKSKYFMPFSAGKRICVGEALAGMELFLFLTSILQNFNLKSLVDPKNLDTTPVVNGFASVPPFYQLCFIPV
Method: as §1

M.tb H37Rv [10] = test: In vivo efficacy study, M.tb H37Rv infected mice (CFU in lung and spleen); settings: 10-50 mg/kg on alternate days for four weeks
[11] = Table S4, lung of infected treated mice
[12] = up to 500 mg/kg b.w./day, 7 days

Question: With `CS(=O)(=O)Nc1ccc(F)cc1-c1cc2cc(F)ccc2n1S(C)(=O)=O` [B] as the compound, how does the IC50 (M.tb-CM) read?
Answer: ~17 µM

Question: What does the source list for `NNC(=O)c1ccncc1` [Isoniazid, reference compound]?
Answer: Granuloma in the lung (M.tb H37Rv [1]): no signs of granuloma; Granuloma (M.tb H37Rv [1]; [11]): -; ZN stain (Acid Fast Bacilli) (M.tb H37Rv [1]; [11]): +; Acid-fast bacilli load in lung, ZN staining (M.tb H37Rv [1]): minimal presence of bacilli

Question: With `CO[C@H]1/C=C/O[C@@]2(C)Oc3c(C)c(O)c4c(O)c(c(/C=N/N5CCN(C)CC5)c(O)c4c3C2=O)NC(=O)/C(C)=C\C=C\[C@H](C)[C@H](O)[C@@H](C)[C@@H](O)[C@@H](C)[C@H](OC(C)=O)[C@@H]1C` [Rifampicin, reference compound] as the compound, how does the “cfu reduction vs day 7 control, combination study” value ([2]; day 7) read?
Answer: 1.96 log10 cfu/mL

Question: What about the “cfu reduction vs day 3 control, combination study” value ([3]; day 3) of the same compound?
Answer: 1.26 log10 cfu/mL

Question: And the “cfu reduction vs day 7 control, combination study” value ([3]; day 7)?
Answer: 2.28 log10 cfu/mL

Question: Which results are given for `CCCc1nn(C)c2c(-c3c[nH]c4ccc(Cl)cc34)nc(-c3ccc(Cl)cc3)nc12` [DRILS-1398]?
Answer: IC50 (CYP 2D6): > 30 µM; MIC (MDR-M.tb ATCC 35825): 4 µg/mL and ~10 µM; Mouse microsomal stability ([4]; 2 min): 56.45%; Mouse microsomal stability ([4]; 5 min): 53.42%; Mouse microsomal stability ([4]; 0.25 h): 42.18%; Mouse microsomal stability ([4]; 0.75 h): 24.61%; Mouse microsomal stability ([4]; 2 h): 26.57%; Microsomal stability, verdict ([4]; mouse): moderately stable; Mutagenic potential [5]: did not show any mutagenic potential; also recorded: non-mutagenic; Growth of M.tb H37Rv with compound, amino acids added after 24 h (M.tb H37Rv cells; 4 μg/mL compound, until 96 h): showed inhibitory effects up to 24 h; Growth of M.tb H37Rv with compound and tyrosine or phenylalanine added at time 0 (M.tb H37Rv cells; ~10 μM compound, 24-96 h): amino acid supplementation rescued the cells from the inhibitory effects; IC50 (CYP 2C19): 13.7 µM; Approximate free drug concentration in blood plasma ([6]; in vivo): ~0.4 µM; clearance ([6]; in vivo): 35 mL/min/kg; half-life ([6]; plasma, IV 10 mg/kg): ~8.25 h; cfu reduction vs day-3 control ([2]; Fig 4C, day 3, C1: DRILS-1398 15 μM, rifampicin 13.16 μM): 0.40 log10 cfu/mL; cfu reduction vs day-7 control ([2]; Fig 4C, day 7, C1: DRILS-1398 15 μM, rifampicin 13.16 μM): 0.70 log10 cfu/mL; cfu reduction vs day 7 control, combination study ([2]; day 7): 0.77 log10 cfu/mL; MIC (M.tb. ATCC-27294 strain; M.tb ATCC-27294): 6.53 µg/mL; MIC (M.tb. ATCC-27294 strain; M.tb ATCC-27294, converted): ~15 µM; solubility (physchem): ≥ 50 mg/mL; IC50 (CYP 3A4): > 30 µM; Clinical signs of toxicity, mortality/morbidity ([7]; oral gavage up to 500 mg/kg b.w./day once daily for 7 days, both genders): no adverse clinical signs of toxicity and mortality/morbidity; Effects on body weight, weight gain, feed consumption, hematological and clinical chemistry parameters [7, 12]: No treatment-related adverse effects; Histopathological evaluation of examined tissues [7, 12]: no treatment-related adverse effects; Granuloma in the lung (M.tb H37Rv [1]): no signs of granuloma; Granuloma (M.tb H37Rv [1]; [11]): -; Necrosis of the lung tissue (M.tb H37Rv [1]; mouse, in vivo): not observed; Acid-fast bacilli load in lung, ZN staining (M.tb H37Rv [1]): significant decrease in bacilli load; AUC(0-inf) ([8]; male, BALB/c, po, 50 mg/kg): 21400 ng·h/mL; AUCextrap ([8]; male, BALB/c, po, 50 mg/kg): 10.30%; Cmax ([8]; male, BALB/c, po, 50 mg/kg): 1580 ng/mL; MRT last ([8]; male, BALB/c, po, 50 mg/kg): 7.52 h; Tmax ([8]; male, BALB/c, po, 50 mg/kg): 4 h; AUC(0-t) ([8]; male, BALB/c, oral 50 mg/kg): 19200 ng·h/mL; half-life ([8]; male, BALB/c, oral 50 mg/kg): 6.95 h; Adverse clinical signs during PK treatment ([8]; po, 50 mg/kg): did not show any adverse clinical signs; cfu reduction vs day-3 control ([3]; Fig 4B, day 3, C1: DRILS-1398 15 μM, rifampicin 13.16 μM): 0.59 log10 cfu/mL; cfu reduction vs day-7 control ([3]; Fig 4B, day 7, C1: DRILS-1398 15 μM, rifampicin 13.16 μM): 1.00 log10 cfu/mL; cfu reduction vs day 3 control, combination study ([3]; day 3): 0.42 log10 cfu/mL; cfu reduction vs day 7 control, combination study ([3]; day 7): 0.98 log10 cfu/mL; IC50 ([9]; IC50, inhibition of M.tb-CM activity, n = 3): 3 µM and ~3 µM; IC90 ([9]; read-out: IC90, inhibition of M.tb-CM activity): 10 µM; fraction unbound at 5 µM (in vitro): ~0.0184; IC50 (CYP 1A2): > 30 µM; IC50 (CYP 2C9): 12.2 µM; Clearance of M.tb H37Rv infection in lungs and spleen (CFU) (M.tb H37Rv [10]): successful in clearing M.tb infection from the lungs and spleen; also recorded: effectively cleared
